Results published in patent US20220235049A1, “SUBSTITUTED PYRROLO [2, 3-b] PYRIDINE AND PYRAZOLO [3,4-b] PYRIDINE DERIVATIVES AS PROTEIN KINASE INHIBITORS” (Fochon Pharmaceuticals, Ltd., priority 2019, published 2022).

System: DOHH2 cells
Assay: Cell proliferation assay in DOHH2 cells (MTS)
Format: cell-based
Method: To investigate whether a compound is able to inhibit the activity of BTK in cells, a mechanism-based assay using DOHH2 (DSMZ catalog #: ACC47) cell was developed. In this assay, inhibition of BTK was detected by the inhibition of DOHH2 cells proliferation. Cells were collected and plated onto 96-well plates at the optimized cell density (5000 cells/well). Plates were incubated at 37° C., with 5% CO2 for 4 h. Compounds were serially diluted and added to the plates with the final concentrations as 10000, 3333.3, 1111.1, 370.4, 123.5, 41.2, 13.7, 4.6 and 1.5 nM. Plates were incubated at 37° C., with 5% CO2 for 120 h. An aliquot of 20 μL MTS/100 μL medium mixture solution were added to each well and the plates were incubated for exactly 2 h. The reaction was stopped by adding 25 μL 10% SDS to each well. The absorbance was measured by a microplate reader at 490 nm and 650 nm (reference wavelength). IC50 was calculated using GraphPad Prism 5.0.
Select compounds prepared as described above were assayed according to the biological procedures described herein.

| Structure (SMILES) | IC50 (Homo sapiens, DOHH-2, 120 h) [nM] | IC50 (120 h) [nM] |
| --- | --- | --- |
| O=C(c1ccc(Oc2ccccc2F)cc1)c1c[nH]c2nccc(N[C@@H]3CC[C@@H](CO)OC3)c12 [Example 104, (4-(2-fluorophenoxy)phenyl)(4-(((3R,6S)-6-(hydroxymethyl)tetrahydro-2H-pyran-3-yl)amino)-1H-pyrrolo[2,3-b]pyridin-3-yl)methanone] | 23 | – |
| COc1cnc2[nH]cc(C(=O)c3c(F)cc(Oc4c(F)cccc4F)cc3F)c2c1N[C@@H]1CC[C@@H](CO)OC1 [Example 193, (4-(2,6-difluorophenoxy)-2,6-difluorophenyl)(4-(((3R,6S)-6-(hydroxymethyl)tetrahydro-2H-pyran-3-yl)amino)-5-methoxy-1H-pyrrolo[2,3-b]pyridin-3-yl)methanone] | 12 | – |
| COc1cnc2[nH]cc(C(=O)c3ccc(Oc4ccccc4)cc3)c2c1N[C@@H]1CC[C@@H](CO)OC1 [Example 177, (4-(((3R,6S)-6-(hydroxymethyl)tetrahydro-2H-pyran-3-yl)amino)-5-methoxy-1H-pyrrolo[2,3-b]pyridin-3-yl)(4-phenoxyphenyl)methanone] | 9 | – |
| COc1cnc2[nH]cc(C(=O)c3ccc(Oc4c(F)cccc4F)cc3C)c2c1N[C@@H]1CC[C@@H](CO)OC1 [Example 188, (4-(2,6-difluorophenoxy)-2-methylphenyl)(4-(((3R,6S)-6-(hydroxymethyl)tetrahydro-2H-pyran-3-yl)amino)-5-methoxy-1H-pyrrolo[2,3-b]pyridin-3-yl)methanone] | 4 | – |
| CCOc1cnc2[nH]cc(C(=O)c3ccc(Oc4ccccc4)cc3F)c2c1N[C@@]12CO[C@H](CO)C1C2 (single isomer, unassigned) [Example 181] | – | 1 |
| O=C(c1ccc(Oc2ccccc2)c(Cl)c1Cl)c1c[nH]c2nccc(N[C@@H]3CC[C@@H](CO)OC3)c12 [Example 36, (2,3-dichloro-4-phenoxyphenyl)(4-(((3R,6S)-6-(hydroxymethyl)tetrahydro-2H-pyran-3-yl)amino)-1H-pyrrolo[2,3-b]pyridin-3-yl)methanone] | 69 | – |
| Cc1cc(Oc2c(F)cccc2F)ccc1C(=O)c1c[nH]c2ncc(F)c(N[C@@H]3CC[C@@H](CO)OC3)c12 [Example 185, (4-(2,6-difluorophenoxy)-2-methylphenyl)(5-fluoro-4-(((3R,6S)-6-(hydroxymethyl)tetrahydro-2H-pyran-3-yl)amino)-1H-pyrrolo[2,3-b]pyridin-3-yl)methanone] | 14 | – |
| N#Cc1cnc2[nH]cc(C(=O)c3ccc(Oc4ccccc4F)cc3F)c2c1N[C@@H]1CC[C@@H](CO)OC1 [Example 90, 3-(2-fluoro-4-(2-fluorophenoxy)benzoyl)-4-(((3R,6S)-6-(hydroxymethyl)tetrahydro-2H-pyran-3-yl)amino)-1H-pyrrolo[2,3-b]pyridine-5-carbonitrile] | 50 | – |
| COc1cnc2[nH]cc(C(=O)c3cnc(Oc4ccccc4F)cc3C)c2c1N[C@@H]1CC[C@@H](CO)OC1 [Example 76, (6-(2-fluorophenoxy)-4-methylpyridin-3-yl)(4-(((3R,6S)-6-(hydroxymethyl)tetrahydro-2H-pyran-3-yl)amino)-5-methoxy-1H-pyrrolo[2,3-b]pyridin-3-yl)methanone] | 47 | – |
| CCOc1cnc2[nH]cc(C(=O)c3ccc(Oc4ccccc4)cc3F)c2c1N[C@@]12CO[C@H](CO)C1C2 (single isomer, unassigned) [Example 182] | – | 31 |
| CCOc1cnc2[nH]cc(C(=O)c3ccc(Oc4ccccc4F)cc3C)c2c1N[C@@H]1CC[C@@H](CO)OC1 [Example 64, (5-ethoxy-4-(((3R,6S)-6-(hydroxymethyl)tetrahydro-2H-pyran-3-yl)amino)-1H-pyrrolo[2,3-b]pyridin-3-yl)(4-(2-fluorophenoxy)-2-methylphenyl)methanone] | 1 | – |
| O=C(c1ccc(Oc2c(F)cccc2F)cc1Cl)c1c[nH]c2ncc(F)c(N[C@@H]3CC[C@@H](CO)OC3)c12 [Example 187, (2-chloro-4-(2,6-difluorophenoxy)phenyl)(5-fluoro-4-(((3R,6S)-6-(hydroxymethyl)tetrahydro-2H-pyran-3-yl)amino)-1H-pyrrolo[2,3-b]pyridin-3-yl)methanone] | 52 | – |
